Results published in US20090156625A1, “Novel Use of a Nicotinic Receptor Agonist 156” (AstraZeneca AB, priority 2007, published 2009).
Read-outs that look alike come from different tables or passages of the source.

Experiments:
[1] = rat, in vivo
Excerpt: (§4) This Fabs parameter was then adjusted to bioavailability (F) by correction for hepatic extraction. […] The clinical dosing frequency desired was assumed to be once daily.

[2] = Mouse PK in low dose pharmacodynamic study (micro-sampling, LC-MS/MS); format: in vivo; details: mice, oral 0.1, 0.001 and 0.0001 mg/kg b.i.d. for 48 hrs, blood
Method: Mice were weighed and orally dosed according to weight at a dose volume of 10 ml/kg (dosed at 0.1 mg/kg, 0.001 mg/kg and 0.0001 mg/kg b.i.d. for 48 hrs). The PK and low dose pharmacodynamic studies were performed in the same group of animals.
Individual mice were repeatedly sampled at various timepoints over the 48 hr duration of the study by taking small volumes of blood by micro-sampling technique. After heating and mild restrain behind a Perspex stand, the tip of the tail was pricked with a 24 gauge needle and whole blood collected into an EDTA 20 μl glass micro sampling tubes. The 20 μl blood sample was then mixed with 80 μls of distilled water and frozen until analysis.
At study termination the mice were culled using CO2 gas. A blood volume of about 0.4 mL was obtained by cardiac puncture. A volume of whole blood was then mixed with distilled water to lyse the cells (ratio 1:1) and stored for analysis.

in vivo [3] = details: rat
Excerpt: as §4

in vivo [4] = details: guinea pig
Excerpt: as §4

[5] = test system: S-GAG (aggrecanase activity); assay: Histamine induced acute articular inflammation in mouse: S-GAG analysis (DMMB assay) of cartilage extract; format: in vivo; details: C57B16 mice, oral
Method: (§1) At 1-hour post oral treatment with either vehicle hydroxypropyl methylcellulose (HPMC) or E1, C57B16 mice were anaesthetized under isofluorane by inhalation. An H1 specific receptor antagonist desloratadine (5 mg/kg) was used as a positive control. The left hind knee was shaved, dampened with 70% ethanol and injected intra articularly into the knee joint (6 μl volume) with either saline or histamine (5 μM) using a glass Hamilton syringe and 30-gauge needle. Mice were allowed to recover in their home cage and kept on study for 48 hours post injection and dosed with compound.
(§2) After synovial lavage, the joint was disarticulated and cartilage was removed with a scalpel from the tibial plateau & femoral condyle, taking care to minimise the amounts of bone. Cartilage samples were weighed and snap frozen. The cartilage from individual animals was extracted in 200 μl high salt buffer (HSB) overnight at 4° C. with gentle agitation.
(§3) Samples were centrifuged at 10000 rpm for 10 min and the HSB cartilage extract decanted and stored at −80° C. prior to analysis.
HSB cartilage extracts were digested with hyaluronidase (110 units/ml) 37° C. for 3 hrs followed by papain digestion at 60° C. overnight. Digested samples were then centrifuged at 12000 g for 15 minutes. […] The plate was read immediately at 532 nm and 620 nm wavelengths and data calculated as O.D 532 nm/O.D 620 nm minus background. […]

in vivo [6] = details: mouse
Method: In order to gain confidence in predicting circulating levels, mouse PK at 1 mg/kg oral dosing was subsequently carried out.
Blood concentrations are given in nM.

Human dose prediction = details: used for human Vss estimate
Excerpt: Human dose prediction for clinical studies requires an estimate of human PK parameters important for defining the elimination T1/2 and the shape and magnitude of the plasma concentration vs time profile at a particular dose. These estimated parameters include Clearance, Volume of Distribution at Steady State (Vss), absorption rate constant (Ka), bioavailability (F) and dosing frequency. Human dose predictions also require some pharmacological evidence as to how exposure relates to efficacy (McGinnity, Collington, Austin & Riley, Current Drug Metabolism 2007 8 463-479).
Having defined the shape and magnitude of the human plasma concentration vs time curve, the final step was to adjust the dose so that plasma concentrations are attained that are likely to achieve efficacy. […] It was impossible to quantify the compound at these dose levels; consequently plasma concentrations observed at a higher oral dose (about 1 mg/kg) were extrapolated down to that likely at efficacious doses, assuming linear kinetics between the two. Finally, in the absence of a real PK/PD relationship in the mouse, it was assumed that efficacy in humans would be related to plasma AUC. Consequently, the human dose was adjusted to give, in conjunction with the estimated human PK parameters defined above, a human AUC value similar to that observed in mouse at efficacious doses.

[7] = In vivo PK in dog (Vss, Fabs)
Excerpt: as §4

MMP13 = assay: Histamine induced acute articular inflammation in mouse: MMP13 fluorokine ELISA of cartilage extract; format: in vivo; details: for cartilage extract MMP13 levels: C57B16 mice, oral
Method: as §1, §2, §3
MMP13 fluorokine ELISA (96-Well Plate Format)
HSB cartilage extracts were tested in duplicate at a 1:5 dilution. There were no deviations from the kit instructions (F13M00, R&D Systems) and the plate was read using an excitation wavelength of 320 nm and an emission wavelength of 405 nm.

## CNCc1ccc(-c2cnc3c(c2)C[C@@]2(CN4CCC2CC4)O3)s1 [Example E1, N-methyl-1-{5-[(2R)-3′H-spiro[4-azabicyclo[2.2.2]octane-2,2′-furo[2,3-b]pyridin]-5′-yl]-2-thienyl}methanamine]
[1]
  Fabs (fraction absorbed): 83%
[2]
  circulating levels: could not be detected in many animals
In vivo [3]
  Vd: 35.5 L/kg
In vivo [4]
  Vd: 10.2 L/kg
[5]; 1 mg/kg b.i.d. for 48 hrs
  S-GAG cartilage levels: significantly reduced
[5]; 1 mg/kg single dose over 48 hr
  S-GAG cartilage levels: significantly reduced
In vivo [6]; 0.001 mg/kg
  concentration at 0 h: 0.0003 nM
  concentration at 0.17 h: 0.0017 nM
  concentration at 0.33 h: 0.0058 nM
  concentration at 0.5 h: 0.0081 nM
  concentration at 0.75 h: 0.0119 nM
  concentration at 1 h: 0.0156 nM
  concentration at 2 h: 0.0266 nM
  concentration at 4 h: 0.0326 nM
  concentration at 6 h: 0.0332 nM
  concentration at 8 h: 0.0349 nM
  concentration at 10 h: 0.0297 nM
  concentration at 12 h: 0.0284 nM
  concentration at 24 h: 0.0172 nM
In vivo [6]; 0.01 mg/kg
  concentration at 0 h: 0 nM
  concentration at 0.17 h: 0.02 nM
  concentration at 0.33 h: 0.06 nM
  concentration at 0.5 h: 0.08 nM
  concentration at 0.75 h: 0.12 nM
  concentration at 1 h: 0.16 nM
  concentration at 2 h: 0.27 nM
  concentration at 4 h: 0.33 nM
  concentration at 6 h: 0.33 nM
  concentration at 8 h: 0.35 nM
  concentration at 10 h: 0.3 nM
  concentration at 12 h: 0.28 nM
  concentration at 24 h: 0.17 nM
In vivo [6]; 0.03 mg/kg
  concentration at 0 h: 0.01 nM
  concentration at 0.17 h: 0.05 nM
  concentration at 0.33 h: 0.17 nM
  concentration at 0.5 h: 0.24 nM
  concentration at 0.75 h: 0.36 nM
  concentration at 1 h: 0.47 nM
  concentration at 2 h: 0.8 nM
  concentration at 4 h: 0.98 nM
  concentration at 6 h: 1 nM
  concentration at 8 h: 1.05 nM
  concentration at 10 h: 0.89 nM
  concentration at 12 h: 0.85 nM
  concentration at 24 h: 0.52 nM
In vivo [6]; 0.1 mg/kg
  concentration at 0 h: 0.03 nM
  concentration at 0.17 h: 0.17 nM
  concentration at 0.33 h: 0.58 nM
  concentration at 0.5 h: 0.81 nM
  concentration at 0.75 h: 1.19 nM
  concentration at 1 h: 1.56 nM
  concentration at 2 h: 2.66 nM
  concentration at 4 h: 3.26 nM
  concentration at 6 h: 3.32 nM
  concentration at 8 h: 3.49 nM
  concentration at 10 h: 2.97 nM
  concentration at 12 h: 2.84 nM
  concentration at 24 h: 1.72 nM
In vivo [6]; po, 0.001 mg/kg
  AUC: 0.29 nM·h
  Cmax: 0.035 nM
In vivo [6]; po, 0.01 mg/kg
  AUC: 2.94 nM·h
  Cmax: 0.349 nM
In vivo [6]; po, 0.03 mg/kg
  AUC: 8.81 nM·h
  Cmax: 1.05 nM
In vivo [6]; po, 0.1 mg/kg
  AUC: 29.4 nM·h
  Cmax: 3.49 nM
In vivo [6]; po, 1 mg/kg
  AUC: 294 nM·h
  Cmax: 35 nM
  concentration at 0 h: 0.31 nM
  concentration at 0.17 h: 1.65 nM
  concentration at 0.33 h: 5.75 nM
  concentration at 0.5 h: 8.08 nM
  concentration at 0.75 h: 11.9 nM
  concentration at 1 h: 15.6 nM
  concentration at 2 h: 26.6 nM
  concentration at 4 h: 32.6 nM
  concentration at 6 h: 33.2 nM
  concentration at 8 h: 34.9 nM
  concentration at 10 h: 29.7 nM
  concentration at 12 h: 28.4 nM
  concentration at 24 h: 17.2 nM
Human dose prediction
  Vss derived by simple allometry across rat and dog: 5.7 L/kg
[7]; dog
  Fabs (fraction absorbed): 70%
[7]; dog in vivo
  Vd: 27 L/kg
MMP13; 0.0001 mg/kg b.i.d. for 48 hrs (further study, FIG. 6)
  cartilage extract MMP13 levels: decreased levels of MMP13
MMP13; 0.001 mg/kg b.i.d. for 48 hrs (further study, FIG. 6)
  cartilage extract MMP13 levels: decreased levels of MMP13
MMP13; 0.1 mg/kg b.i.d. for 48 hrs (further study, FIG. 6)
  cartilage extract MMP13 levels: decreased levels of MMP13
MMP13; 0.1 mg/kg b.i.d. for 48 hrs, tibial cartilage (first study, FIG. 4)
  cartilage extract MMP13 levels: decreased levels of MMP13
MMP13; 1 mg/kg b.i.d. for 48 hrs, tibial cartilage
  cartilage extract MMP13 levels: decreased levels of MMP13
MMP13; 1 mg/kg once over the 48 hr study period, tibial cartilage
  cartilage extract MMP13 levels: decreased levels of MMP13
MMP13; mouse PD studies
  dose at which efficacy against MMP down-regulation and joint swelling was observed (as low as): 0.1 µg/kg
